The values that follow come from patent US20230149388A1, “OPIOID ANTAGONIST FORMULATIONS” (EMERGENT PRODUCT DEVELOPMENT GAITHERSBURG INC., priority 2020, published 2023).

This series is described as follows: Pharmacokinetics of naloxone in Beagle dog, IM injection. The series is classed as in vivo. The note with it: both sexes, plasma, 0.3 mg/kg, Beagle dogs.

Each structure is given as a SMILES string.

Experimental: Pharmacokinetic (“PK”) data was collected from male and female Beagle dogs. Two (2) animals of each sex were assigned to three cohorts. […] Each injection was administered at a dose of 0.3 mg/kg.
Blood samples were collected from each animal following IV injections at target time points of pre-dose, and at 0.033, 0.083, 0.167, 0.333, 0.5, 1, 2, 4, and 8 hr. Blood samples were also collected from each animal following IM injections at target time points of pre dose, and at 0.083, 0.167, 0.25, 0.333, 0.5, 1, 2, 4, and 8 hr. Blood samples were collected into tubes containing dipotassium ethylenediaminetetraacetic acid (K2EDTA), processed to plasma, and stored until analyzed for naloxone.
PK analysis was performed using the target dose (mg/kg), sample collection time points (hr), and the measured concentrations of naloxone (ng/mL) in serum. If the actual sample collection time points were within 5% of target from 0 to 4 hours or within 15 minutes after 4 hours, then the target time points were used. […] The lower limit of quantitation (LLOQ) in plasma for this method is 0.2 ng/mL.
The method utilized protein precipitation in a 96-well format and LC-MS/MS analysis. The literature method was modified to utilize a larger sample size (50 μL) analysis.
The concentration-time profiles were evaluated using the non-compartmental analysis (NCA) module in the WinNonlin® software program (Version 8.2). […]

In the case of `C=CCN1CC[C@]23c4c5ccc(O)c4O[C@H]2C(=O)CC[C@@]3(O)[C@H]1C5` [naloxone], under “following IM injection, typical value”, the time to peak (Tmax) (as a rule, the time from dosing to the highest level) was roughly 15 min. The half-life – broadly, the time needed for the level to fall by half in the phase considered – (following both IM and IV injection, read-out: group mean elimination half-life) lay in the range of 28 to 35 min.
